Data published in BigSolDB 2.1.

C[N+](C)(C)CC(=O)[O-]
Settings | solubility (mole fraction)
in ethanol, 282.95 K | 0.0264
in ethanol, 288.15 K | 0.0298
in ethanol, 293.65 K | 0.0336
in ethanol, 298.45 K | 0.0372
in ethanol, 303.05 K | 0.041
in isopropanol, 283.45 K | 0.00458
in isopropanol, 288.65 K | 0.0054
in isopropanol, 293.15 K | 0.00622
in isopropanol, 298.45 K | 0.0071
in isopropanol, 303.35 K | 0.00823
in methanol, 283.15 K | 0.117
in methanol, 288.15 K | 0.121
in methanol, 293.55 K | 0.126
in methanol, 298.25 K | 0.131
in methanol, 303.2 K | 0.136
in n-butanol, 283.45 K | 0.00812
in n-butanol, 288.7 K | 0.00964
in n-butanol, 293.05 K | 0.0109
in n-butanol, 298.35 K | 0.0125
in n-butanol, 302.9 K | 0.0142
in n-propanol, 282.85 K | 0.0134
in n-propanol, 288.15 K | 0.0154
in n-propanol, 293.55 K | 0.0177
in n-propanol, 298.23 K | 0.02
in n-propanol, 303.45 K | 0.0225
in water, 283.15 K | 0.184
in water, 288.25 K | 0.189
in water, 293.2 K | 0.194
in water, 298.35 K | 0.2
in water, 303.25 K | 0.206
